The record followed here is publication PMC8199613, “Discovery of Novel Small-Molecule Inhibitors of PD-1/PD-L1 Interaction via Structural Simplification Strategy” (Molecules, 2021).

Molecules are shown by their SMILES. Values after ≈ are worked out from the molar mass of the structure shown. “Also recorded” adds a separate entry of the source. Where only a bound is given, the exact number is not on record here.

One data set in a line: Water solubility by HPLC. It is filed as physicochemical. The note with it: aqueous buffer, thermodynamic from solid, pH 7.4, PBS. As for the experimental part:
The aqueous solubility was estimated by HPLC. The HPLC analysis was performed on a Shimadzu LC-20AT machine with a BDS Hypersil C18 column, and the column temperature was at 28 °C. Mobile phase B (100% MeOH) and mobile phase A (100% water) were used in a gradient elution program (0 min: 30% (B), 2 min: 50% (B), 8 min: 95% (B), 14 min: 95% (B), 18 min: 70% (B), 20 min: 30% (B)) with a flow rate of 1.0 mL/min at […]. Methanol was used to configure an accurate compounds concentration to calculate the standard curve. The excess test compound was dissolved in PBS (KH2PO4 0.24 g + KCl 0.2 g + NaCl 8 g + Na2HPO4·12H2O 3.58 g + 1 L water) and then analyzed by HPLC.

In a further data set the target is T1, PD-1/PD-L1 interaction (Homo sapiens, UniProt Q9NZQ7).
T1 construct: purchased Cisbio 64ICP01PEG
Nature of the data set: HTRF-based PD-1/PD-L1 binding assay. The settings on record: for IC50: HTRF, two independent experiments; for LE: LE = −1.35 logIC50/Nheavy atoms (HTRF IC50).

The target in a further data set is hPD-L1 (Homo sapiens, UniProt Q9NZQ7). Nature of the data set: SPR binding affinity assay (Biacore T200). The settings on record: for LE: LE = -1.35log KD/Nheavy atoms (SPR KD); for kon: SPR association rate, read-out: Ka (M-1s-1) / Kon; for koff: SPR dissociation rate, read-out: Kd (s-1) / Koff; for Kd: SPR, 25 °C, 1:1 binding model. As for the experimental part:
To provide definitive evidence of direct binding to PD-L1 with small-molecule inhibitors, an SPR-based binding assay was performed using Biacore T200 instrument, which facilitates measurement of the kinetic parameters of ligand–protein complex formation. In this determination, hPD-L1/Fc was loaded on a Series S Sensor Chip Protein A. A9 and A15, with similar bioactivities in HTRF assay, were gradually subjected to this assay, and their kinetic parameters and the binding affinities were determined with the aid of Biacore evaluation software.
SPR analysis was carried out according to the method described by a previous article. The kinetic analysis for the interaction of small molecules with hPD-L1 was performed on a Biacore T200 (GE Healthcare Bio-sciences, Uppsala, Sweden) using Series S Sensor Chip Protein A (GE Healthcare Bio-sciences, Uppsala, Sweden, catalog # 29139131-AA). Briefly, Fc-hPD-L1 (Acro Biosystems, Cambridge, MA, USA, catalog #PD1-H5258) was diluted using 1 × PBS-P^+ buffer (phosphate buffer 1×, GE Healthcare Bio-sciences, catalog # 28-9950-84, enriched with 0.05% surfactant P20) containing 5% DMSO (Sigma-Aldrich, St. Louis, MO, America, catalog # D4540) and captured as the ligand (i.e., the target of small molecules) on protein A chip surface following Biacore T200 build-in protocol for kinetic/affinity analysis at a concentration of 10 μg/mL. The contact time and flow rates were set as 120 s and 10 μL/min for the ligand capture. Each experiment was performed using a pair of flow cells, one with ligand captured and the other kept as reference. A concentration gradient of analytes was freshly prepared in 1× PBS-P^+ buffer with 5% DMSO with at least five concentrations, and the concentration range was optimized according to different analytes. Analytes could flow through both ligand-captured flow cells and reference flow cells at the same rate (30 μL/min) and contact time (90 s). Solvent correction was included to avoid the impact of DMSO on surface plasmon effect during binding analysis. Extra washing of the flow system using 50% DMSO in 1×PBS-P^+ buffer was allowed to control carry over effects. For the regeneration of surface after each cycle (one-time ligand capture and binding of analyte at a single concentration) was carried out using 10 mM glycine pH 1.5 (GE Healthcare Bio-sciences, Uppsala, Sweden, catalog #BR-1003-54) at a flow rate of 30 μL/min for 30 s. Kinetic analysis was performed at 25 °C. Maximum binding response (Rmax) and equilibrium dissociation […] (KD) values were calculated using Biacore T200 Evaluation software following the 1:1 binding model.

The test system of a further data set is MDA-MB-231 cells. Nature of the data set: MTT non-specific cytotoxicity assay, MDA-MB-231. It is filed as cell-based. The note with it: for EC50: Homo sapiens, MDA-MB-231, 48 h, read-out: EC50 (μM)/MDA-MB-231 Toxicity; for direct killing of tumor cells: as shown in Table 3. As for the experimental part:
(§1) Considering that the toxicity of the compound might strongly interfere with the assay if the tested compounds could block PD-1/PD-L1 interaction to activate T cells for killing tumors, we examined their cell toxicities of MDA-MB-231 and Jurkat T cells in MTT assay. […] Furthermore, Jurkat T cells were used to simulate primary T cells for investigating the immune toxicity of the treated compounds with the regular concentrations within 48 h.
(§2) The MDA-MB-231 and Jurkat cell line was provided by the Chinese Academy of Sciences Cell Bank. The cytotoxicity of the test compounds was determined using the MTT assay. Briefly, MDA-MB-231 and Jurkat cells were incubated at 37 °C in a humidified 5% CO2 incubator for 24 h in 96-microwell plates. Then, 100 μL of culture medium containing the test compounds at different concentrations was added to each well and incubated at 37 °C for another 48 h. The MTT was added and incubated for another 4 h, and the optical density was detected with a microplate reader at 570 nm. The IC50 values were calculated according to the dose-dependent curves.

In a further data set the test system is Jurkat T cells. Briefly: MTT non-specific cytotoxicity assay, Jurkat. Type of data set: cell-based. The settings on record: for EC50: Homo sapiens, Jurkat, MTT, 48 h, read-out: EC50 (μM)/Jurkat Toxicity; for immune toxicity in Jurkat T cells: regular concentrations within 48 h. As for the experimental part:
as §1, §2

Data set [1] concerns Hep3B/OS-8/hPD-L1 and CD3+ T cells co-culture. Nature of the data set: IFN-γ production in Hep3B/OS-8/hPD-L1 and CD3+ T cell co-culture assay.

T1 sequence (Q9NZQ7 19-238 limits assumed): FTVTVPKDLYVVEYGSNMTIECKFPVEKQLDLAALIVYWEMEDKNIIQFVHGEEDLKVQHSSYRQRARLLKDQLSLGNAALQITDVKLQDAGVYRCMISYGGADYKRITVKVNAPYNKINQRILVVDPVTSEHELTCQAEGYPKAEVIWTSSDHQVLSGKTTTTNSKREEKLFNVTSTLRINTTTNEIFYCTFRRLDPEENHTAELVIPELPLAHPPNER
hPD-L1, sequence (Q9NZQ7 19-238 limits assumed): as above

In turn, `COc1nc(OCc2cccc(-c3ccccc3)c2C)ccc1CNCCNC(C)=O` [BMS-202, reference compound] had a solubility in the data set “Water solubility by HPLC” of 90 µg/mL (≈ 215 µM).

In the case of `COc1nc(-c2cccc(-c3ccccc3F)c2C)ccc1CNCCC(N)=O` [Compound A9, 3-(((6-(2′-Fluoro-2-methyl-[1,1′-biphenyl]-3-yl)-2-methoxypyridin-3-yl)methyl)amino)propenamide], at PD-1/PD-L1 interaction (HTRF IC50 ratio), the “increase in activity as compared with A4” value is listed as “more than 23 fold”. At PD-1/PD-L1 interaction, this compound came in with an IC50 of 0.93 nM and an LE of 0.43. In addition, at hPD-L1, the LE is listed as 0.40; the kon amounted to 538000 M⁻¹ s⁻¹; the koff came out at 0.00196 s⁻¹; the affinity, expressed as Kd, was 3.64 nM. The “KD compared with that of A15” value on hPD-L1 (SPR KD ratio) stood at 5 fold. Besides, in the data set with MDA-MB-231 cells, the EC50 worked out at 11.1 µM and the “direct killing of tumor cells” value is “do not directly kill tumor cells”. Moreover, in the data set on Jurkat T cells, the EC50 worked out at 7.6 µM and the “immune toxicity in Jurkat T cells” value is reported as “lower cell toxicity”. In “Water solubility by HPLC”, the solubility was 126 µg/mL (≈ 321 µM). In addition, the “IFN-γ production / release” value in data set [1] (72 h co-culture, ELISA, dose response) is given as “promote the dose-dependent release of IFN-γ; also recorded: significantly promote the production of IFN-γ in a dose-dependent manner; also recorded: potently induces the release of IFN-γ”. In addition, the “promoting effect on IFN-γ production compared with BMS-202” value in data set [1] (A9 at 5 μM) is recorded as “significantly higher than that of BMS-202”. The “promoting effect on IFN-γ production compared with Keytruda” value in data set [1] (A9 at 5 μM vs Keytruda at 5 μg/mL) is “comparable promoting effect on production of INF-γ; also recorded: comparable to that of Keytruda at 5 μg/mL”.

As to `COc1nc(-c2cccc(-c3ccccc3Cl)c2C)ccc1CNCCC(N)=O` [Compound A11], the melting point lay in the range of 49 to 51 °C. At PD-1/PD-L1 interaction, this compound registered an IC50 of 6.18 nM and an LE of 0.39. In the data set on MDA-MB-231 cells, the EC50 was determined as 7.1 µM and the “direct killing of tumor cells” value was “do not directly kill tumor cells”. In the data set on Jurkat T cells, the EC50 came out at 5.5 µM and the “immune toxicity in Jurkat T cells” value was “lower cell toxicity”.

`COc1nc(-c2cccc(-c3ccccc3)c2C)ccc1CNCCC(N)=O` [Compound A13] showed a melting point of 127 to 128 °C. Besides, the “increase in potency over compound A11” value on PD-1/PD-L1 interaction (HTRF IC50 ratio) is “approximately 3 fold”. Besides, at PD-1/PD-L1 interaction, the 50% inhibitory concentration (IC50) worked out at 1.94 nM and the LE is 0.43. Besides, in the data set on MDA-MB-231 cells, the EC50 is over 10 µM and the “direct killing of tumor cells” value is recorded as “do not directly kill tumor cells”. The EC50 with Jurkat T cells came to 7.73 µM.

Compound `COc1nc(-c2cccc(-c3cccc(F)c3)c2C)ccc1CNCCC(N)=O` [Compound A14, 3-(((6-(3′-Fluoro-2-methyl-[1,1′-biphenyl]-3-yl)-2-methoxypyridin-3-yl)methyl)amino)propenamide] displayed a melting point of 48 to 51 °C. On PD-1/PD-L1 interaction, this compound yielded an IC50 of 1.75 nM and an LE of 0.41. Also, in the data set on MDA-MB-231 cells, the EC50 was over 10 µM and the “direct killing of tumor cells” value is “do not directly kill tumor cells”. Further, in the data set with Jurkat T cells, the EC50 was over 10 µM.

In turn, `COc1nc(-c2cccc(-c3ccc(F)cc3)c2C)ccc1CNCCC(N)=O` [Compound A15] showed a melting point of 120 to 122 °C. At PD-1/PD-L1 interaction, the IC50 was found to be 0.97 nM and the LE is 0.43. For the same compound, on hPD-L1, the LE is on record as 0.36, the kon worked out at 505000 M⁻¹ s⁻¹, the koff was determined as 0.0101 s⁻¹ and binding was put at a Kd of 19.9 nM. In addition, in the data set with MDA-MB-231 cells, the EC50 amounted to 10.2 µM and the “direct killing of tumor cells” value was “do not directly kill tumor cells”. In addition, in the data set on Jurkat T cells, the EC50 amounted to 5.5 µM and the “immune toxicity in Jurkat T cells” value is given as “lower cell toxicity”.

Consider `COc1nc(-c2cccc(-c3ccc(Cl)cc3F)c2C)ccc1CNCCC(N)=O` [Compound A17], for which the melting point was in the range of 122 to 124 °C. On PD-1/PD-L1 interaction, the concentration for half-maximal inhibition (IC50) is 866 nM and the LE is 0.28.

Compound `COc1nc(-c2cccc(-c3ccc(C(F)(F)F)cc3F)c2C)ccc1CNCCC(N)=O` [Compound A18] had a melting point of 137 to 139 °C. On PD-1/PD-L1 interaction, this compound registered an IC50 of 791 nM and an LE of 0.25.

In general, solubility refers to the concentration that dissolves in the medium under given conditions. Low readings indicate little dissolved substance, high ones much dissolved substance. Broadly, the IC50 is the concentration at which inhibition is half-maximal. What is called Kd is the free concentration of one partner at which half of the binding sites on the other are occupied at equilibrium, for simple one-to-one binding. A lower Kd goes with tighter binding. A word on the melting point: it is the temperature, or range, at which the solid turns liquid.
